Data on one molecule can be found in publication PMC2950128, “Protein Evolution by Molecular Tinkering: Diversification of the Nuclear Receptor Superfamily from a Ligand-Dependent Ancestor” (PLoS Biology, 2010).

The test deals with T1, AqNR1-LBD (Amphimedon queenslandica, UniProt B1A9Z2).
T1 construct: fusion kept for serum incubation), E. coli BL21(DE3) pLysS
The test is described as follows: lipid extraction and negative-ion ESI/MS of purified LBD. Format: binding. Particulars: co-purified from E. coli (also after complete serum); identified by mass as 18:0, chain isomer not told.

T1 sequence (B1A9Z2 entry or part of it): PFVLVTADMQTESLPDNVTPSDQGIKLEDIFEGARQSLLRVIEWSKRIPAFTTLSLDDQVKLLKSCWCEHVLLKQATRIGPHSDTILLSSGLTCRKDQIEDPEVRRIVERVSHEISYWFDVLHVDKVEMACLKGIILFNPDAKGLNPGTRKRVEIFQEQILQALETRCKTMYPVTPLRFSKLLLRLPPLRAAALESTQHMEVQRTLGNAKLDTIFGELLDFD

Turning to `CCCCCCCCCCCCCCCCCC(=O)O` [18∶0 fatty acid], the “lipid extraction and negative-ion ESI/MS of purified LBD” value was “bound an array of bacterial free fatty acids (FAs)”.
